From paper PMC6427912 (Journal of medicinal chemistry, 2019) come the findings set out here.

Series [1] concerns B. subtilis. Put plainly: B. subtilis growth inhibition assay. The class given is cell-based, Bacillus subtilis.
The test system of series [2] is Mycobacterium smegmatis. The series can be described thus: M. smegmatis growth inhibition assay. The class given is cell-based.
Series [3] has as its system B. anthracis Sterne. The class given is cell-based, Bacillus anthracis. To be noted: B. anthracis Sterne growth inhibition.
Series [4] has as its system S. aureus. The series can be described thus: S. aureus growth inhibition assay. The class given is cell-based, Staphylococcus aureus. The note with it: S. aureus growth inhibition.
Series [5] has as its system HEK293 cells. Put plainly: HEK293 cell growth inhibition assay. The note with it: HEK293 cell growth inhibition ED50, 24 hr incubation. The class given is cell-based, human.

Read-outs that look alike come from different tables or passages of the source.

`CC(C)CCCC(C)CCc1ccc[n+](CC(P(=O)([O-])O)P(=O)(O)O)c1` (centres unmarked) [Compound 102, Hydrogen (2-(3-(3,7-dimethyloctyl)pyridin-1-ium-1-yl)-1-phosphonoethyl) phosphonate]: the “Bs ED50” value in series [1] (12 hours) was 1.9 µg/mL.

Consider `CC(C)CCCC(C)c1cnc(NCC(P(=O)(O)O)P(=O)(O)O)s1` (centres unmarked) [Compound 94, (2-((5-(6-Methylheptan-2-yl)thiazol-2-yl)amino)ethane-1,1-diyl)bis(phosphonic acid)], for which the results for the “Ms ED50” value in series [2] (48 hours) and in series [2] (value in parentheses) were 96 µg/mL and 240 µM, respectively. Also, the figures for the “Ba ED50” value in series [3] and in series [3] (value in parentheses) were 11 µg/mL and 28 µM, respectively. Besides, the “Bs ED50” value in series [1] (12 hours) turned out to be 100 µg/mL; in series [1] (value in parentheses) it was 250 µM. Further, the “Sa ED50” value came out at 56 µg/mL in series [4] and 140 µM in series [4] (value in parentheses).

On to `CC(C)CCCC(C)CCc1cnc(NCC(P(=O)(O)O)P(=O)(O)O)s1` (centres unmarked) [Compound 88, (2-((5-(3,7-Dimethyloctyl)thiazol-2-yl)amino)ethane-1,1-diyl)bis(phosphonic acid)], for which the “Ms ED50” value stood at 150 µg/mL in series [2] (48 hours) and 350 µM in series [2] (value in parentheses). The “Ba ED50” value in series [3] amounted to 7.4 µg/mL; in series [3] (value in parentheses), 17 µM. Also, the “Bs ED50” value in series [1] (12 hours) worked out at 21 µg/mL; in series [1] (value in parentheses) it was 49 µM. Moreover, the results for the “Sa ED50” value in series [4] and in series [4] (value in parentheses) were 36 µg/mL and 84 µM, respectively.

As to `CC(C)CCCC(C)CCOc1ccnc(NCC(P(=O)(O)O)P(=O)(O)O)c1` (centres unmarked) [Compound 96, (2-((4-((3,7-Dimethyloctyl)oxy)pyridin-2-yl)amino)ethane-1,1-diyl)bis(phosphonic acid)], the “Ms ED50” value amounted to 100 µg/mL in series [2] (48 hours) and 240 µM in series [2] (value in parentheses). The “Ba ED50” value in series [3] came out at 11 µg/mL; in series [3] (value in parentheses), 26 µM. For the same compound, the “Bs ED50” value came to 180 µg/mL in series [1] (12 hours) and 420 µM in series [1] (value in parentheses). Further, the figures for the “Sa ED50” value in series [4] and in series [4] (value in parentheses) were 52 µg/mL and 120 µM, respectively.

As for `CC(C)=CCC/C(C)=C/Cc1ccc[n+](CC(P(=O)([O-])O)P(=O)(O)O)c1` (centres unmarked) [Compound 103, 3-[(2E)-3,7-dimethylocta-2,6-dien-1-yl]-1-(2-hydrogenphosphonato-2-phosphonoethyl)pyridin-1-ium], in series [1] (12 hours), the “Bs ED50” value was ~ 9.2 μg/mL.

Turning to `CC(C)CCCC(C)CCn1cc[n+](CC(P(=O)([O-])O)P(=O)(O)O)c1` (centres unmarked) [Compound 82, Hydrogen(2-(1-(3,7-dimethyloctyl)-1H-imidazol-3-ium-3-yl)-1-phosphonoethyl) phosphonate], the entries for the “Ms ED50” value in series [2] (48 hours) and in series [2] (value in parentheses) were 15 µg/mL and 38 µM, respectively. Besides, the “Ba ED50” value in series [3] was 4.3 µg/mL; in series [3] (value in parentheses) it was 11 µM. Moreover, the “HEK 293” value in series [5] was 170 µg/mL; in series [5] (value in parentheses), 420 µM. In addition, the “Bs ED50” value in series [1] (12 hours) was determined as 4.6 µg/mL; in series [1] (value in parentheses), 12 µM. Further, the “Sa ED50” value was 34 µg/mL in series [4] and 86 µM in series [4] (value in parentheses).

As to `O=P(O)(O)C(CNc1nccs1)P(=O)(O)O` [Compound 93], the entries for the “Ms ED50” value in series [2] (48 hours) and in series [2] (value in parentheses) were 290 µg/mL and 1000 µM, respectively. Besides, the “Ba ED50” value amounted to 2.3 µg/mL in series [3] and 8.0 µM in series [3] (value in parentheses). Also, the “Bs ED50” value is 97 µg/mL in series [1] (12 hours) and 340 µM in series [1] (value in parentheses). The “Sa ED50” value in series [4] was 230 µg/mL; in series [4] (value in parentheses) it was 800 µM.

Turning to `CC(C)CCCC(C)CCCC(C)CCOc1ccc[n+](CC(P(=O)([O-])O)P(=O)(O)O)c1` (centres unmarked) [Compound 90, Hydrogen(1-phosphono-2-(3-((3,7,11-trimethyldodecyl)oxy)pyridin-1-ium-1-yl)ethyl) phosphonate], the “Ms ED50” value in series [2] (48 hours) was 91 µg/mL; in series [2] (value in parentheses), 180 µM. The “Ba ED50” value in series [3] is 5.0 µg/mL; in series [3] (value in parentheses), 10 µM. Further, the “Bs ED50” value was found to be 36 µg/mL in series [1] (12 hours) and 73 µM in series [1] (value in parentheses). Moreover, the “Sa ED50” value in series [4] turned out to be 22 µg/mL; in series [4] (value in parentheses), 45 µM.

For the compound `CC(C)CCCC(C)CCOc1ccnc(NC(P(=O)(O)O)P(=O)(O)O)c1` (centres unmarked) [Compound 95, (((4-((3,7-Dimethyloctyl)oxy)pyridin-2-yl)amino)methylene)bisphosphonic acid], the results for the “Ms ED50” value in series [2] (48 hours) and in series [2] (value in parentheses) were 79 µg/mL and 160 µM, respectively. Further, the figures for the “Ba ED50” value in series [3] and in series [3] (value in parentheses) were 2.5 µg/mL and 5.2 µM, respectively. Also, the “HEK 293” value in series [5] is 630 µg/mL; in series [5] (value in parentheses), 1300 µM. For the same compound, the “Bs ED50” value in series [1] (12 hours) is 110 µg/mL; in series [1] (value in parentheses), 230 µM. In addition, the results for the “Sa ED50” value in series [4] and in series [4] (value in parentheses) were 69 µg/mL and 140 µM, respectively.

Take `CC(C)CCCC(C)CCOc1cccc(NCC(P(=O)(O)O)P(=O)(O)O)n1` (centres unmarked) [Compound 92, (2-((6-((3,7-Dimethyloctyl)oxy)pyridin-2-yl)amino)ethane-1,1-diyl)bis(phosphonic acid)]: the “Ms ED50” value in series [2] (48 hours) was 200 µg/mL; in series [2] (value in parentheses), 460 µM. Further, the “Ba ED50” value in series [3] came out at 4.2 µg/mL; in series [3] (value in parentheses), 9.6 µM. Moreover, the figures for the “Bs ED50” value in series [1] (12 hours) and in series [1] (value in parentheses) were 75 µg/mL and 170 µM, respectively. Moreover, the “Sa ED50” value in series [4] is 60 µg/mL; in series [4] (value in parentheses), 140 µM.

Regarding `CCCCCCCCCCCCCc1ccc[n+](CC(P(=O)([O-])O)P(=O)(O)O)c1` (centres unmarked) [Compound 83, Hydrogen (1-phosphono-2-(3-tridecylpyridin-1-ium-1-yl)ethyl)phosphonate], the “Ms ED50” value in series [2] (48 hours) came to 7.2 µg/mL; in series [2] (value in parentheses) it was 16 µM. In addition, the “Ba ED50” value came to 2.2 µg/mL in series [3] and 4.9 µM in series [3] (value in parentheses). Also, the “HEK 293” value is 22 µg/mL in series [5] and 48 µM in series [5] (value in parentheses). Moreover, the “Bs ED50” value turned out to be 5.5 µg/mL in series [1] (12 hours) and 12 µM in series [1] (value in parentheses). The “Sa ED50” value in series [4] amounted to 30 µg/mL; in series [4] (value in parentheses), 67 µM.

Turning to `CC(C)CCCC(C)CCCC(C)CCCC(C)CCOc1ccc[n+](CC(P(=O)([O-])O)P(=O)(O)O)c1` (centres unmarked) [Compound 97, Hydrogen(1-phosphono-2-(3-((3,7,11,15-tetramethylhexadecyl)oxy)pyridin-1-ium-1-yl)ethyl)phosphonate], the “Ms ED50” value was 210 µg/mL in series [2] (48 hours) and 370 µM in series [2] (value in parentheses). Besides, the “Ba ED50” value came to 7.7 µg/mL in series [3] and 14 µM in series [3] (value in parentheses). Moreover, the “Bs ED50” value is 260 µg/mL in series [1] (12 hours) and 460 µM in series [1] (value in parentheses). Also, the “Sa ED50” value in series [4] turned out to be 25 µg/mL; in series [4] (value in parentheses), 44 µM.

As for `CC(C)CCOc1ccc[n+](CC(P(=O)([O-])O)P(=O)(O)O)c1` (centres unmarked) [Compound 91, Hydrogen (2-(3-(isopentyloxy)pyridin-1-ium-1-yl)-1-phosphonoethyl)phosphonate], the “Ms ED50” value was 65 µg/mL in series [2] (48 hours) and 180 µM in series [2] (value in parentheses). The “Ba ED50” value was determined as 8.6 µg/mL in series [3] and 24 µM in series [3] (value in parentheses). The “Bs ED50” value stood at 41 µg/mL in series [1] (12 hours) and 120 µM in series [1] (value in parentheses). The “Sa ED50” value in series [4] turned out to be 17 µg/mL; in series [4] (value in parentheses), 48 µM.

For the compound “(((6-(4,8-Dimethylnonyl)pyridin-2-yl)amino)methylene)bis(phosphonic acid) [Compound 89]”, the “Ms ED50” value was determined as 93 µg/mL in series [2] (48 hours) and 210 µM in series [2] (value in parentheses). For the same compound, the “Ba ED50” value was 3.0 µg/mL in series [3] and 6.9 µM in series [3] (value in parentheses). Also, the “HEK 293” value in series [5] came to 480 µg/mL; in series [5] (value in parentheses), 1100 µM. Further, the entries for the “Bs ED50” value in series [1] (12 hours) and in series [1] (value in parentheses) were 26 µg/mL and 60 µM, respectively. Moreover, the “Sa ED50” value was found to be 32 µg/mL in series [4] and 73 µM in series [4] (value in parentheses).

`CC(C)CCCC(C)CCCn1cc[n+](CC(P(=O)([O-])O)P(=O)(O)O)c1` (centres unmarked) [Compound 75, Hydrogen(2-(1-(4,8-dimethylnonyl)-1H-imidazol-3-ium-3-yl)-1-phosphonoethyl) phosphonate]: the figures for the “Ms ED50” value in series [2] (48 hours) and in series [2] (value in parentheses) were 1.4 µg/mL and 3.4 µM, respectively. In addition, the “Ba ED50” value is 1.8 µg/mL in series [3] and 4.4 µM in series [3] (value in parentheses). Further, the “HEK 293” value is 181 µg/mL in series [5] and 440 µM in series [5] (value in parentheses). Besides, the “Bs ED50” value in series [1] (12 hours) was 1.7 µg/mL; in series [1] (value in parentheses), 4.1 µM. Moreover, the “Sa ED50” value in series [4] came out at 26 µg/mL; in series [4] (value in parentheses) it was 63 µM.

Turning to `CC(C)CCCC(C)CCSc1ccc[n+](CC(P(=O)([O-])O)P(=O)(O)O)c1` (centres unmarked) [Compound 79, Hydrogen(2-(3-((3,7-dimethyloctyl)thio)pyridin-1-ium-1-yl)-1-phosphonoethyl) phosphonate], the “Ms ED50” value was 6.2 µg/mL in series [2] (48 hours) and 14 µM in series [2] (value in parentheses). The “Ba ED50” value in series [3] is 0.4 µg/mL; in series [3] (value in parentheses), 0.9 µM. Further, the figures for the “HEK 293” value in series [5] and in series [5] (value in parentheses) were 224 µg/mL and 510 µM, respectively. In addition, the “Bs ED50” value is 2.8 µg/mL in series [1] (12 hours) and 6.4 µM in series [1] (value in parentheses). In addition, the entries for the “Sa ED50” value in series [4] and in series [4] (value in parentheses) were 18 µg/mL and 41 µM, respectively.

As to `CC(C)CCCC(C)CCc1csc(NCC(P(=O)(O)O)P(=O)(O)O)n1` (centres unmarked) [Compound 86, (2-((4-(3,7-Dimethyloctyl)thiazol-2-yl)amino)ethane-1,1-diyl)bis(phosphonic acid)], the figures for the “Ms ED50” value in series [2] (48 hours) and in series [2] (value in parentheses) were 150 µg/mL and 350 µM, respectively. Moreover, the “Ba ED50” value in series [3] came to 5.0 µg/mL; in series [3] (value in parentheses), 12 µM. In addition, the “Bs ED50” value in series [1] (12 hours) came out at 8.3 µg/mL; in series [1] (value in parentheses) it was 19 µM. Further, the results for the “Sa ED50” value in series [4] and in series [4] (value in parentheses) were 23 µg/mL and 54 µM, respectively.
